From patent US8053573B2, “Monomer 5, 6-diphenyl-1.2.4-traizinic derivatives and the use thereof” (Pierre Fabre Dermo-Cosmetique, priority 2004, dated 2011)
“And” between values parts separate entries of the source, which are not always exact repeats. Identical values can stand only once.

Tests used:
Assay type in all cases: physicochemical
[1] = Spectral characteristics: molar extinction coefficient and specific absorbance; conditions: ethyl acetate, 10 μg/ml; for Maximum specific absorbance UVB / Maximum specific absorbance UVA: A1cm^1%
Text: The calculation of the molar extinction coefficient (ε) is made from the Beer-Lambert law:
[formula] Wherein: A=absorbance I0=intensity of the incident light I=intensity of the transmitted light ε=molar extinction (or molar absorbance) coefficient in M^−1 cm^−1 l=path length in cm c=concentration in mol/l
The molar extinction coefficient can be expressed with respect to a given mass of the product. It thus makes it possible to be able to compare the coefficients of extinction between products for the same given quantity. This quantity is 1% by weight. The molar extinction coefficient thus becomes the specific absorbance (A1cm^1%).
[formula] Wherein: A1cm^1%=specific absorbance ε=molar extinction coefficient M=molar mass
The spectral characteristics of the compounds in comparison with commercial filters at a concentration of 10 μg/ml are summarized in tables 2-1 and 2-2.
Procedure: The products are dissolved in ethyl acetate to a concentration of 10 μg/ml. The spectra are measured using a dual-beam spectrophotometer (Varian CARY 50 Scan) between 290 nm and 400 nm.

[2] = Spectral distribution in UVA and UVB (290-400 nm); conditions: range from 290 nm to 400 nm
Text: The products tested are classified according to spectral distribution in UVA and UVB in a range from 290 nm to 400 nm.
It is possible to differentiate them according to their spectral distribution:
Products with a narrow spectrum: • Products absorbing in the range between 280 nm and 320 nm (UVB) • Products absorbing in the range between 320 nm and 400 nm (UVA) Products with a broad spectrum: • Products absorbing in UVB (280-320 nm) and UVA-II […] • Products covering UVB and UVA (280-400 nm).

[3] = In vitro SPF in a chemical solvent (Diffey and Robson); conditions: ethyl acetate solution, 10 μg/ml, transmittance 290-400 nm
Protocol: The in vitro methods of determining the protective effectiveness of sun products consist of measuring by transmission spectrophotometry the absorption spectrum of the filter in solution or of the product applied on a substrate with the aim of simulating the surface of the skin. The effectiveness against UVB and/or UVA rays, or the effect on the cutaneous response, are then determined by calculation, taking into account or not the UV radiation action spectrum for the damage considered.
The Sayre/Agin and Diffey/Robson method, used since the 1990s, involves a comparative measurement, with the aid of an integrating-sphere spectroradiometer, of the transition from 290 nm to 400 nm in 5 nm steps, the sample being subjected to UV radiation from a stable known source covering the whole of the UV spectrum (unfiltered xenon).
Diffey and Robson evaluate the erythemal response by the following calculation:
[formula] E(λ)=spectral irradiation in W(m^−2) (nm^−1) at 40° N sun at 20° zenith angle ε=erythematous capacity
The Diffey and Robson formula makes it possible to determine SPF from the measurement of transmittance between 290 nm and 400 nm. Transmittance is measured in solution in ethyl acetate at a concentration of 10 μg/ml using a UV-visible spectrophotometer (Varian CARY 50 Scan).

[4] = In vitro SPF in a primary formula (gel on PMMA plates); conditions: PMMA plate, 1.2 mg/cm^2
Protocol: PMMA (polymethyl methacrylate) plates (50×50 mm, supplied by Europlast) were used.
The dose applied in the in vivo solar product evaluation protocols (2 mg/cm^2) is too high for the type of substrate employed here.
Gels were formulated from the triazines that are objects of this invention and certain reference filters. The molecules are solubilized in Transcutol® CG in a water bath. The solution is then placed under magnetic stirring and a gelling agent, Klucel HF (hydroxypropyl cellulose), is added at a concentration of 2%. Stirring is maintained for 30 minutes. SPF is measured using a Labsphere UV-1000 S Transmittance Analyzer spectrophotometer (Labsphere, North Sutton, N.H., USA).

[5] = Photostability in solution in a chemical solvent (Suntest CPS+); conditions: 25 μg deposited from methanol, absorbance vs non-irradiated control, in % (unit assumed); for Photostability at 10 MED mean: Suntest irradiation 10 MED; for Photostability at 20 MED mean: Suntest irradiation 20 MED
Text: A Suntest CPS+ (Atlas, Linsengenicht/Altenhasslan, Germany) was used. The Suntest makes it possible to reproduce the solar spectrum and thus to carry out exposures inside at any time without weather constraints.
The radiance of the solar simulator was carefully measured with a spectroradiometer (MSS 2044, Bielefeld, Germany). UVB and UVA intensities were 0.49 mW/cm^2 and 6.32 mW/cm^2, respectively. The MED value defined by COLIPA is 5.6 J/cm^2 in total UV (22). The UV total (UVA+UVB) accounts for 14.8% of the energy delivered by the lamp (power 460 W/m^2). An irradiation dose equivalent to 1 MED corresponds to 37.83 J/cm^2 (in total spectrum) delivered by the lamp.
The Suntest test duration is calculated using the following formula: t=H/E with: […]
The solutions of the compounds are prepared at a concentration of 500 μg/ml in methanol. 50 μl (25 μg) of each solution are deposited in a crystallizer, then irradiated in the Suntest at 5, 10 and/or 20 MED. A non-irradiated control is prepared (deposit of 50 μl of solution and addition of 2.450 ml of methanol). The solvent evaporates during irradiation and the products are taken up in 2.5 ml of methanol. After irradiation, the absorbance of each solution is measured with the UV-visible spectrophotometer (Varian CARY 50 Scan).

[6] = Solubility study in solvents or excipients used in cosmetics
[7] = Spectral characteristics: molar extinction coefficient and specific absorbance; conditions: ethyl acetate, 10 μg/ml
[8] = single filter 3% in Transcutol CG / Klucel HF gel
[9] = Finsol V NT ® (C12-C15 alkyl benzoate)

Compound	Maximum specific absorbance UVB [1]	Maximum molar extinction coefficient UVB [1]	Wavelength of maximum molar extinction coefficient UVB [1]	Wavelength of maximum specific absorbance UVB [1]	Spectral distribution [2]	SPF [3]	SPF [4, 8]	Photostability at 10 MED mean [5]	Photostability at 20 MED mean [5]	Solubility (%) [6, 9]	Solubility (%) ([6]; PEG400 ® (polyethylene glycol))	Maximum specific absorbance UVA [1]	Maximum molar extinction coefficient UVA [1]	Wavelength of maximum molar extinction coefficient UVA [1]	Wavelength of maximum specific absorbance UVA [1]	other results
COc1ccc(-c2nnc(-c3ccc(O)cc3)nc2-c2ccc(OC)cc2)cc1 [JR65, 3-(4-hydroxyphenyl)-5,6-bis(4-methoxyphenyl)-1,2,4-triazine]	809	31100 M⁻¹ cm⁻¹	at 315	at 315	absorb in UVB	68.21	9.8 and 10.9	96.91	85.5	1%	5%	–	–	–	–	Solubility (%) ([6]; Arlasolve DMI ® (dimethyl isosorbide)): 8%; Solubility (%) ([6]; Butylene glycol): 5%; Solubility (%) ([6]; Cetiol SN ® (decyl oleate)): 1%; Solubility (%) ([6]; Cetiol V ® (cetearyl isononanoate)): 2%; Solubility (%) ([6]; Hexylene glycol): 5%; Solubility (%) ([6]; Isopropyl adipate): 2%; Solubility (%) ([6]; Isopropyl myristate): 5%; Solubility (%) ([6]; Myritol 318 ® (caprylic/capric triglycerides)): 0.5%
CCCCCCCCCCCCOc1ccc(-c2nnc(-c3ccc(OC)cc3)c(-c3ccc(OC)cc3)n2)cc1 [JR173, 3-(4-dodecyloxyphenyl)-5,6-bis(4-methoxyphenyl)-1,2,4-triazine]	878 at	48600 M⁻¹ cm⁻¹	at 305	305	absorb in UVB	69.02	–	–	–	7%	2%	–	–	–	–	–
COc1ccc(C(=O)CC(=O)c2ccc(C(C)(C)C)cc2)cc1 [Parsol 1789 ®, reference compound]	–	–	–	–	only absorbs in UVA	51.1	–	57.04	6.26	–	–	1100	34100 M⁻¹ cm⁻¹	at 360	at 360	Maximum specific absorbance UVC ([7]; A1cm^1%): 278 at; Maximum molar extinction coefficient UVC [7]: 8633 at M^−1 cm^−1; Wavelength of maximum molar extinction coefficient UVC [7]: 275; Wavelength of maximum specific absorbance UVC [7]: 275
CCCCC(CC)COC(=O)C=Cc1ccc(OC)cc1 (stereo not shown) [Parsol MCX ®, reference compound]	848	24600 M⁻¹ cm⁻¹	at 310	at 310	–	20.78	–	33.38	11.63	–	–	–	–	–	–	SPF ([4]; single filter 5% in Transcutol CG / Klucel HF gel): 17.2
CCCCC(CC)COc1ccc(-c2nc(-c3ccc(OC)cc3)nc(-c3ccc(OCC(CC)CCCC)cc3O)n2)c(O)c1 (stereo not shown) [Tinosorb S ®, reference compound]	751	47150 M⁻¹ cm⁻¹	at 310	at 310	absorb in UVB and UVA	76.19	9.8	–	–	–	–	789	49580 M⁻¹ cm⁻¹	at 345	at 345	–
